We go through 13 compounds from ChEMBL document CHEMBL1201862, “PubChem BioAssay data set” (2004).

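Cells were grown in 96-well plates and exposed to each compound for 48 hours at five concentrations; endpoints were interpolated linearly between bracketing concentrations, or set to the highest concentration if not reached. GI50: concentration for 50% inhibition of growth.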 Calls of active or inactive are those of the source. Cut-off read from the data, not from the text of the source: active = GI50 up to about 1.1 µM and inactive = higher.

Common to all, as to assay: DTP human tumour cell line panel, 48 h
The test system of test [1] is A549.
Test [2] concerns ACHN.
Test [3] has as its system BT-549.
The test system of test [4] is CAKI-1.
The subject of test [5] is CCRF-CEM.
For test [6], the system named is DU-145.
Test [7] has as its system HCT-116.
Test [8] deals with HT-29.
For test [9], the system named is KM12.
The test system of test [10] is MCF7.
The test system of test [11] is NCI-H226.
Test [12] deals with PC-3.
Test [13] deals with SK-MEL-28.
Test [14] concerns SK-MEL-2.
Test [15] concerns SNB-19.
Test [16] concerns TK-10.
Test [17] concerns MDA-N.

Take `c1ccc2c(c1)CCc1c-2n(CCN2CCCCC2)c2ccccc12`: the GI50 is 18.7 µM (inactive) in test [1]; 18.7 µM (inactive) in test [2]; 17.9 µM (inactive) in test [3]; 16.6 µM (inactive) in test [4]; 15.6 µM (inactive) in [5]; 39.4 µM (inactive) in test [6]. The GI50 in test [7] is 12.5 µM (inactive); in test [8], 8.2 µM (inactive); in test [9], 14.9 µM (inactive); in test [10], 15.2 µM (inactive); in test [11], 10.9 µM (inactive); in test [12], 11.8 µM (inactive). The GI50 in test [13] was 19.6 µM (inactive); in [14], 16.3 µM (inactive); in test [15], 26 µM (inactive); in test [16], 19.1 µM (inactive).

For the compound `O=c1[nH]c(=O)n(COCCO)c2ccc(Br)cc12`, the GI50 in [1], in test [2], in test [4], in test [5], in test [6] and in test [7] was > 100 µM (inactive) in each case. Also, the GI50 is > 100 µM (inactive) in test [8]; > 100 µM (inactive) in test [9]; > 100 µM (inactive) in [10]; > 100 µM (inactive) in test [17]; 25.2 µM (inactive) in test [11]; > 100 µM (inactive) in test [13]. The results for the GI50 in test [14], in test [15] and in test [16] were > 100 µM (inactive), 50.6 µM (inactive) and > 100 µM (inactive), respectively.

Consider `Cc1c(C(=O)C(=O)c2ccccc2)c(C)c(C(=O)C(=O)c2ccccc2)c(C)c1C(=O)C(=O)c1ccccc1`, for which the GI50 in test [1], in test [2], in [5], in [7], in test [8] and in [9] was > 100 µM (inactive) in each case. Further, the GI50 in test [10], in test [17], in [12], in test [13], in test [15] and in test [16] was > 100 µM (inactive) in each case.

As for `COC(=O)c1c(C)cc(OC)c(C/C=C(\C)CCCc2coc(C=C(C)C)c2)c1OC`, the GI50 is > 100 µM (inactive) in test [1]; > 100 µM (inactive) in [2]; > 100 µM (inactive) in test [3]; > 100 µM (inactive) in test [4]; 41.5 µM (inactive) in [5]; > 100 µM (inactive) in test [6]. Besides, the GI50 in test [7] was > 100 µM (inactive); in test [8], 74.8 µM (inactive); in test [9] it was > 100 µM (inactive); in [10] it was > 100 µM (inactive); in test [17] it was > 100 µM (inactive); in test [12], > 100 µM (inactive). For the same compound, the GI50 in test [13], in test [14], in [15] and in [16] was > 100 µM (inactive) in each case.

With `c1ccc(C2CC(NC3CCCCC3)=Nc3ccccc3N2)cc1` (configuration not stated), the GI50 in [1] was > 100 µM (inactive); in [2], > 100 µM (inactive); in test [3], 54.8 µM (inactive); in test [4], 98.9 µM (inactive); in test [5] it was 34.9 µM (inactive); in test [6] it was > 100 µM (inactive). The GI50 in [7] was 73.5 µM (inactive); in [8], 24.2 µM (inactive); in test [9] it was 40.8 µM (inactive); in [17], 75.9 µM (inactive); in [11], > 100 µM (inactive); in test [12], 33.6 µM (inactive). Besides, the GI50 was 45.2 µM (inactive) in test [13], > 100 µM (inactive) in [14], > 100 µM (inactive) in [15] and > 100 µM (inactive) in test [16].

For `CC(=O)OCC1OC(n2c(-c3ccccc3)c(C(C)=O)c(-c3ccc(Cl)cc3)c(C#N)c2=S)C(OC(C)=O)C(OC(C)=O)C1OC(C)=O` (configuration not stated), the GI50 in [1] is > 100 µM (inactive); in test [2] it was > 100 µM (inactive); in [4], 99.8 µM (inactive); in test [5] it was 29.9 µM (inactive); in [6], > 100 µM (inactive); in test [7], 83.2 µM (inactive). Further, the GI50 was > 100 µM (inactive) in [8]; > 100 µM (inactive) in [9]; > 100 µM (inactive) in test [10]; 62.8 µM (inactive) in test [17]; > 100 µM (inactive) in test [11]; 1.93 µM (inactive) in test [12]. For the same compound, the GI50 in test [13] was > 100 µM (inactive); in [14], < 0.01 µM (active); in test [15], > 100 µM (inactive); in test [16], > 100 µM (inactive).

Regarding `CCOC(=O)c1ccc(NC(=O)O/N=C(/Cl)CCl)cc1`, the GI50 in [1] was 37.1 µM (inactive); in test [2], 12.6 µM (inactive); in [4], > 100 µM (inactive); in test [5], 21.5 µM (inactive); in test [6], 65.3 µM (inactive); in test [7], 50.1 µM (inactive). Also, the GI50 in test [8] is 54.6 µM (inactive); in test [9], 15.4 µM (inactive); in test [10] it was 34.8 µM (inactive); in [17], 37.8 µM (inactive); in test [12], 33.6 µM (inactive); in [13] it was 17.6 µM (inactive). For the same compound, the GI50 in test [14] is 60.5 µM (inactive); in test [15] it was 86.1 µM (inactive); in [16], 28.4 µM (inactive).

Turning to `O=C1C[C@@]23CCC4(CC2=CCC[C@H]3O1)OCCO4`, the GI50 in [1], in [2], in test [4], in [6], in [7] and in test [8] was > 100 µM (inactive) throughout. Further, the GI50 in test [9], in test [10], in test [17], in [11], in [12] and in test [13] was > 100 µM (inactive) in each case. For the same compound, the GI50 in test [14], in test [15] and in [16] was > 100 µM (inactive) throughout.

Take `N#C/C(=C/NC(=S)Nc1ccc(S(N)(=O)=O)cc1)C(N)=O`: the GI50 in test [1], in [2], in [3], in test [4], in [6] and in test [7] was > 100 µM (inactive) in each case. The GI50 in test [8], in [9], in test [10], in [17], in test [12] and in test [13] was > 100 µM (inactive) throughout. Further, the GI50 in test [16] was > 100 µM (inactive).

In the case of `COc1ccc(/C=C2\N=C3NC(=O)C(N4CCCCC4)=C(N)N3C2=O)cc1`, the GI50 is > 100 µM (inactive) in [1]; 70.6 µM (inactive) in test [2]; > 100 µM (inactive) in test [4]; > 100 µM (inactive) in [5]; > 100 µM (inactive) in [6]; > 100 µM (inactive) in [7]. Besides, the GI50 in test [8], in test [9], in test [10], in test [17], in test [11] and in test [13] was > 100 µM (inactive) each time. The GI50 in test [15] was > 100 µM (inactive); in [16], 47 µM (inactive).

Consider `CC1CN=C(N(C(=O)Nc2ccccc2)c2ccccc2)S1` (configuration not stated), for which the GI50 is 33.4 µM (inactive) in test [1]; 37.2 µM (inactive) in test [2]; 27 µM (inactive) in [4]; 23.4 µM (inactive) in [5]; 53.2 µM (inactive) in test [6]; 39.7 µM (inactive) in test [7]. In addition, the GI50 is 17.9 µM (inactive) in [8]; 32.7 µM (inactive) in test [9]; 8.99 µM (inactive) in [10]; 24.1 µM (inactive) in test [17]; 36.6 µM (inactive) in [12]; 13.9 µM (inactive) in test [13]. The GI50 in test [14] is 20.8 µM (inactive); in [15] it was 88.1 µM (inactive); in [16], 20.6 µM (inactive).

In the case of `COc1cc(OC)c(OC)cc1/C=C/c1nc2ccccc2s1`, the GI50 in [1] was > 100 µM (inactive); in [2], > 100 µM (inactive); in [5] it was > 100 µM (inactive); in test [6], > 100 µM (inactive); in test [7], 25.2 µM (inactive); in [8], 38.7 µM (inactive). For the same compound, the GI50 in [9] is > 100 µM (inactive); in [10], 82.4 µM (inactive); in [17], 17.5 µM (inactive); in [11] it was > 100 µM (inactive); in test [12], 5.78 µM (inactive); in test [13], > 100 µM (inactive). In addition, the GI50 is > 100 µM (inactive) in test [14], > 100 µM (inactive) in test [15] and 98.2 µM (inactive) in [16].

With `C=C(C)[C@@H]1CC[C@]2(C(=O)O)CC[C@]3(C)[C@H](CCC4[C@@]5(C)CC[C@H](C(=O)/C=C/c6ccc(O)c(O)c6)C(C)(C)[C@@H]5CC[C@]43C)[C@@H]12` (some centres not stated), the GI50 in test [1] is 2.58 µM (inactive); in test [2], 2.72 µM (inactive); in [3] it was 12 µM (inactive); in test [4], 3.66 µM (inactive); in [5], 2.42 µM (inactive); in test [6], 5.15 µM (inactive). For the same compound, the GI50 in test [7] was 2.77 µM (inactive); in test [9] it was 2.2 µM (inactive); in [10], 4.04 µM (inactive); in [17] it was 3.89 µM (inactive); in [12] it was 4.32 µM (inactive); in test [14], 12.6 µM (inactive). Moreover, the GI50 was 11.9 µM (inactive) in test [15] and 11 µM (inactive) in test [16].

For orientation: GI50 means the concentration giving 50% growth inhibition.
